# Earlier results, collected in paper PMC9128007 (ACS Pharmacology & Translational Science, 2022).
# System: panel of seven proteases including selected cysteine (3), serine (3), and aspartyl (1) proteases
smiles,measurement,value
CC(C)(C)[C@H](NC(=O)C(F)(F)F)C(=O)N1C[C@H]2[C@@H]([C@H]1C(=O)N[C@H](C#N)C[C@@H]1CCNC1=O)C2(C)C [Nirmatrelvir],activity in a panel of seven proteases,lack of activity
